Source: USRE47437E1, “Prolyl hydroxylase inhibitors and methods of use” (Akebia Therapeutics, Inc., priority 2015, dated 2019)

Experiments:
HIF-1α = assay: Mouse tissue HIF Western blot analysis; type: in vivo; details: mouse liver; FIG. 1
Description: (§1) Mouse Ischemic Hindlimb Study
(§2) All animal work is conducted in accordance with the Guide for the Care and Use of Laboratory Animals (National Academy of Sciences; Copyright© 1996) and the Institutional Animal Care and Use Committee guidelines at Procter and Gamble Pharmaceuticals. We studied 9-10 week old male C57Bl/6 mice from Charles River Laboratory (Portage, Mich.). The mice are orally dosed with vehicle (aqueous carbonate buffer, 50 mM; pH 9.0) or compound 1 in vehicle at 50 mg/kg or 100 mg/kg. The animals are dosed three times: day 1 at 8 am and 5 pm, day 2 at 8 am. One hour after the first dose, unilateral arterial ligation is performed under anesthesia using isoflurane. The femoral artery is ligated proximal to the origin of the popliteal artery. The contralateral limb underwent a sham surgical procedure. Ligation is performed in an alternating fashion between right and left hindlimbs. Two hours after 8 am dosing on day 2, we obtained blood by ventricular stick while the mice are anesthetized with isoflurane. Serum samples for EPO analysis are obtained using gel clot serum separation tubes. Heart, liver, and gastrocnemius muscles are harvested, snap-frozen in liquid nitrogen, and stored in −80° C. until use.
Mouse Tissue HIF Western Blot Analysis
Tissues from mice stored at −80° C. are powdered with mortar and pestle chilled with liquid nitrogen. […]

EPO = assay: Mouse serum EPO assay (mouse ischemic hindlimb study); type: in vivo; details: versus vehicle; after oral dosing; FIG. 2
Description: as §1, §2
The mouse serum EPO is detected using Mouse Quantikine Erythropoietin ELISA kit from R&D Systems according to manufacturer's instructions.

O=C(O)CNC(=O)c1ncc(-c2cccc(Cl)c2)cc1O [{[5-(3-Chlorophenyl)-3-hydroxypyridine-2-carbonyl]amino}-acetic acid]
stabilization of HIF-1α, immunoblot analysis of nuclear extracts (HIF-1α): stabilization of HIF-1α in mouse liver | erythropoietin level in mouse serum (EPO): elevated versus vehicle
